Laboratory results taken from PMC4747340, “A new class of small molecule estrogen receptor-alpha antagonists that overcome anti-estrogen resistance” (Oncotarget, 2015).
Like-named read-outs stand apart in the source and are kept apart here.

Columns and labels:
[1] = MTT assay of cell viability; type: cell-based; conditions: human, MCF-7 cells, 24-hr exposure, relative to untreated control
Method: Figure 3 Cytotoxicity and specificity of compounds A., B. Subconfluent proliferating cells were incubated with the indicated compound at the indicated concentration for 24-hr and then harvested for MTT dye reduction assays. Cell viability values (relative to untreated control cells) are means ± SEMs of 10 replicate wells. C., D. Subconfuent proliferating T47D cells were transfected overnight with the MMTV-Luc reporter (0.25 μg per well in 24-well dishes), washed, and allowed to recover for several hr in fresh medium. The cells were then treated with a synthetic progestin (R5020, 10 nM) plus the indicated compound at the indicated concentration for 24 hr and then harvested for luciferase assays. Luciferase activity is expressed relative to the MMTV-Luc control (no agents added) (panel A) or as a percentage of the +R5020 positive control (panel B). Values are means ± SEMs of four replicate wells. The data shown in each panel are representative of three independent experiments.
Assays were performed as described before. After the indicated treatment, cells in 96-well dishes were solubilized and assayed for MTT dye reduction. Cell viability was expressed as the amount of dye reduction relative to untreated control cells. and calculated as means ± SEMs for 10 replicate wells.

[2] = target: T1, estrogen receptor-alpha (ER) (Homo sapiens, UniProt P03372); experiment: constitutive ER activity, ERE-TK-Luc reporter, in anti-estrogen resistant LCC9 cells; type: cell-based; set-up: LCC9 cells in 24-well dishes were transfected overnight with the ERE-TK-Luc reporter plasmid; endogenous in cells; host or cells: LCC9; conditions: LCC9, no E2, 24 hr; read-out: IC50 for inhibition of ER activity in LCC9
T1 sequence (P03372 1-595): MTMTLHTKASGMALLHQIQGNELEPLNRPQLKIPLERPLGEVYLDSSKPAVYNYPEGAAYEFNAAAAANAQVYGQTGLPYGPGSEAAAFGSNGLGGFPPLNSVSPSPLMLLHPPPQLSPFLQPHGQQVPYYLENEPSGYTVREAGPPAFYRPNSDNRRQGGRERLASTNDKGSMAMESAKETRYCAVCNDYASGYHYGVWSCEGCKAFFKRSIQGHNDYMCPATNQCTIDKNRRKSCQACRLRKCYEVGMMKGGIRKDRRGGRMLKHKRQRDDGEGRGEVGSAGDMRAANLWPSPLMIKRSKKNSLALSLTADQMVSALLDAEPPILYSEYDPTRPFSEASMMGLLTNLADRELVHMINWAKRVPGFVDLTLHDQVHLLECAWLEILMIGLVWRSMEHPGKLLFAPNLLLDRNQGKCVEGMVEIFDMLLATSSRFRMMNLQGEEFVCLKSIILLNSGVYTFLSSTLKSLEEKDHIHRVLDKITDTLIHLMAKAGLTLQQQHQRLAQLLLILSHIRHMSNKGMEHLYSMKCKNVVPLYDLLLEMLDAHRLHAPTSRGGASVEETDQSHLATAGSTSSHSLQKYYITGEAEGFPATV
Method: (§1) For MCF-7, luciferase activity is expressed as a fold-change relative to the no E2 control. For LCC9, luciferase activity is expressed relative to the control without the reporter present. Values plotted are means ± SEMs of four replicate wells. The data shown in each panel are representative of three independent experiments.
The cells were then treated with the indicated concentrations of the six bioactive compounds or vehicle only (DMSO) for 24-hr and assayed for luciferase activity. Luciferase activity is expressed as a percentage of the DMSO control. Values are means ± SEMs of four replicate wells. The data shown in each panel are representative of three independent experiments.
The cells were then harvested for luciferase assays. Luciferase activity was expressed as a fold-change relative to the no reporter control. Values plotted are means ± SEMs of four replicate wells. The data shown are representative of three independent experiments.
(§2) Subconfluent cells in 24-well dishes were transfected overnight with 0.25 μg of each indicated vector plus the ERE-TK-Luc reporter in serum-free DMEM containing Lipofectamine2000 (Life Technologies, Washington, DC). Total transfected DNA was kept constant by addition of control vector. The cells were washed, incubated in phenol red-free DMEM containing 5% charcoal-stripped serum (obtained from the Tissue Culture Shared Resource) (0.2 ml/well) ± E2 (10 nM) ± the indicated compound for 24-hr, and harvested for luciferase assays. For each assay condition was tested in quadrupicate. To monitor the transfection efficiency, cultures were co-transfected with plasmid pRSV-β-gal (Promega, Madison, WI) to visualize transfected cells by X-gal staining.

[3] = target: T1, estrogen receptor-alpha (ER); experiment: ER activity, ERE-TK-Luc reporter, in MCF-7 cells; type: cell-based; set-up: MCF-7 cells in 24-well dishes were transfected overnight with the ERE-TK-Luc reporter plasmid; endogenous in cells; host or cells: MCF-7; conditions: for IC50: read-out: IC50 for inhibition of E2-stimulated ER activity
Method: as §1
The cells were then treated ± 17β-estradiol (E2, 10 nM) and with the indicated compound (@ 1 μM or 20 μM) or vehicle only (DMSO) for 24 hr and assayed for luciferase activity. Luciferase activity is expressed as a fold-change relative to the no E2 control. The data shown are representative of three independent experiments.
as §2

LCC9 cells = experiment: cell proliferation assay (cell counts days 1, 3, 5), LCC9; type: cell-based, human; conditions: DMEM + 5% charcoal-stripped serum, up to 5 days; 4631-P/1 at 1 μM
Method: Starting on day 1, cells were refed daily with fresh medium (DMEM plus 5% CSS) containing the indicated agent. In panel F, the cells were refed with medium also containing ER-siRNA or control-siRNA (100 nM) at the indicated times. Wells were counted on days 1, 3, and 5 to determine cell numbers. Values are means ± SEMs of triplicate wells. The data shown in each panel are representative of three independent experiments.
Assays were performed using as the growth medium phenol red-free DMEM containing 5% charcoal-stripped serum. Briefly, proliferating cells were harvested using trypsin, counted, inoculated into 12-well dishes at 1 × 10^4 cells per well on day 0 and allowed to attach and recover for 24 hr. The cells were then treated with the indicated agents for up to five days, with daily refeeding with fresh medium and agents. Triplicate wells were counted by Coulter Counter on days 1, 3, and 5. For experiments using siRNAs, cells were treated with the indicated siRNA (100 nM) starting on day -2, and fresh siRNA was added on days 0, 2, and 4.

[4] = MCF7, MCF-7, E2 10 nM, compound 1 μM, 24 hr, read-out: inhibition of E2-stimulated ER activity at 1 μM

Row | Compound | viability at 24 h, 1 µM [1] | viability at 24 h, 20 µM [1] | IC50 [2] | inhibition at 1 µM ([3]; MCF7, read-out: inhibition of E2-stimulated ER activity at 1 μM) | IC50 ([3]; MCF-7, E2 10 nM, 24 hr) | inhibition at 1 µM [3, 4] | inhibition of E2-stimulated ER activity at 1 μM ([3]; MCF-7, E2 10 nM, compound 1 μM, 24 hr) | effect on LCC9 cell growth, single agent (LCC9 cells)
1 | CC(C)=CC1C(COC(=O)c2cc3c(cc2Cl)OCO3)C1(C)C (stereo not drawn) [48693-K/1] | 100% | > 90% | 4000 nM | ≥ 50% | ≤ 1000 nM | – | – | –
2 | Sc1ccc2ccccc2c1CNCc1ccccc1 [81747-N/1] | 100% | > 90% | 30000 nM | – | ≤ 1000 nM | ≥ 50% | – | –
3 | c1ccc2c(c1)-c1ccccc1C2N1CC2CCC(CC2)C1 [88999-U/1] | – | – | ≤ 1000 nM | – | ≤ 1000 nM | ≥ 50% | – | –
4 | OCC(CCc1c[nH]c2ccccc12)c1c[nH]c2ccccc12 (stereo not drawn) [372127-T/1] | – | – | ≤ 1000 nM | – | ≤ 1000 nM | – | ≥ 50% | –
5 | C[C@]12CC[C@@H]3c4ccc(O)cc4CC[C@H]3[C@@H]1CC[C@@H]2O [E2, 17β-estradiol, reference compound] | – | – | – | – | – | – | – | Neither E2 nor Tam significantly altered growth of LCC9
6 | CC/C(=C(\c1ccccc1)c1ccc(OCCN(C)C)cc1)c1ccccc1 [Tam, Tamoxifen, reference compound] | – | – | – | – | – | – | – | Neither E2 nor Tam significantly altered growth of LCC9
